Results taken from PMC11605291 (Frontiers in Pharmacology, 2024).

How the values were obtained:
[1] = Metabolite profiling and identification in plasma, urine and feces (LC/RAM/MS); type: in vivo, human; set-up: key to Plasma %AUC (percentage of total plasma radioactivity) / Urine %Dose / Feces %Dose: +: No radioactive peaks were detected, but mass spectrometry peaks were detected; ND: not detectable; settings: for Urine %Dose: pooled 0–72 h urine, total in urine 37.15%
Procedure: The plasma samples from six subjects were pooled individually according to the AUC method to obtain 6 plasma samples of 0–72 h ([Hop et al., 1998]). A portion of the proportionally mixed plasma sample was taken and added to a certain volume of acetonitrile (3×, v/v) for extraction, vortexed for 1 min, shaken for 10 min and then stored in a refrigerator at 4°C for 30 min, the mixture was removed and vortexed for 2 min and then centrifuged for 10 min at 10,000×g and 4°C. The residue from the extraction was firstly ultrasonically suspended using 1 mL of ultrapure water and then extracted using methanol (2×, v/v) and repeated twice. The organic solvent extracts were combined, blown dry with nitrogen and reconstituted with acetonitrile: ultrapure water (1:1), the reconstituted solution was centrifuged at 4°C and 10,000×g for 10 min, and the supernatant was used for radio-metabolite profiling.
The radioactivity in the organic solvent extract and the reconstitution solution was determined by LSC. The solid residue after extraction was dissolved by heating with 1N KOH solution and added to the scintillation solution to determine its radioactivity. All the final data were used to examine the recovery of radioactivity during plasma extraction.
The urine samples from the six subjects were mixed in the same volume percentage to obtain six 0–72 h urine samples. A portion of the proportionally mixed urine sample was centrifuged for 10 min at approximately 10,000×g and 4°C. Two samples were taken before and after centrifugation, and the radioactivity of the samples was determined by LSC, and the data obtained were used to calculate the recovery of radioactivity during the centrifugation process. A portion of the supernatant after centrifugation was used directly for radio-metabolite profiling.
The fecal samples from the six subjects were mixed with the same weight percentage to obtain 6 fecal homogenate samples of 0–168 h. A portion of the proportionally mixed fecal homogenate samples was taken and extracted by adding a volume of acetonitrile (3×, v/v), vortexed for 5 min at room temperature, sonicated for 5 min and then centrifuged for 10 min at 10,000 × g and 4°C. The residue of the extracted material was firstly sonicated and mixed using about 1 mL of ultrapure water before extracted using methanol (2×, v/v). The process was repeated twice and the organic extracts were combined, blown dry using nitrogen and then reconstituted with dimethyl sulfoxide: acetonitrile: ultrapure water (3:2:5), the reconstituted solution was centrifuged at 10,000×g at 4°C for 10 min and the supernatant was used for radio-metabolite profiling. […] LSC was used to determine the intensity of radioactivity contained in the organic solvent extract and in the reconstituted solution. The solid residue after extraction is fully combusted by an oxidative combustor, and the [^14C]carbon dioxide produced by combustion of the sample is captured with a scintillation solution to determine its radioactivity intensity. All final data were used to examine the extraction and recovery of radioactivity from fecal homogenate samples.
A high performance liquid chromatograph coupled with an online isotope detector and mass spectrometry (LC/RAM/MS) was used for the identification of radioactive metabolite profiles. The HPLC method consisted of an HPLC system (Shimadzu UFLC-20A-Lite), a chromatographic column (ACE Excel 3 C18, 150 × 4.6 mm id), mobile phase A (0.4% aqueous formic acid, pH = 3.2 adjusted with ammonia) and mobile phase B (acetonitrile) at a flow rate of 0.7 mL/min. The gradient was 0% B for the 0–5 min, 20% B from 15 min to 30 min, 22% B from 32 to 40 min, and 70%–100% B from 60 to 72 min. The column temperature was 28°C. […]

[2] = set-up: method as in Cao W. et al., 2023; settings: 30 mg amdizalisib capsules, fed condition, Chinese healthy volunteers ref Cao W. et al., 2023; cited from earlier work

## C[C@H](Nc1ncnc(N)c1C#N)c1cc2ncc(Cl)n2nc1-c1ccccc1 [Amdizalisib]
[1]
  F: %Dose in feces (Figure 4): 1.21%
  P: %AUC in plasma (Figure 4): 51.45%
  U: %Dose in urine (Figure 4): +
[1]; AUC-pooled 0–72 h plasma, mean of 6 subjects
  Plasma %AUC (percentage of total plasma radioactivity): 51.45 %AUC
[1]; mean of 6 subjects
  Urine %Dose: +
[1]; mean of 6 subjects, listed as parent drug
  Urine %Dose: detected only by mass spectrometry
[1]; pooled 0–168 h feces, mean of 6 subjects, total in feces 62.08%
  Feces %Dose: 1.21 %Dose
[1]; subject 01001
  %AUC in AUC-pooled plasma: 57.45 %AUC
  %Dose in pooled feces: 0.77 %Dose
[1]; subject 01002
  %AUC in AUC-pooled plasma: 65.57 %AUC
  %Dose in pooled feces: 0.25 %Dose
[1]; subject 01003
  %AUC in AUC-pooled plasma: 56.65 %AUC
  %Dose in pooled feces: 1.93 %Dose
[1]; subject 01004
  %AUC in AUC-pooled plasma: 59.14 %AUC
  %Dose in pooled feces: 1.52 %Dose
[1]; subject 01005
  %AUC in AUC-pooled plasma: 54.59 %AUC
  %Dose in pooled feces: 2.32 %Dose
[1]; subject 01006
  %AUC in AUC-pooled plasma: 15.32 %AUC
  %Dose in pooled feces: 0.48 %Dose
[2]
  AUC0-∞: 1,574 h٠ng/mL
  Cmax: 152 ng/mL
